Columns and labels:
[1] = logP determination by HPLC on reversed-phase column (EEC Directive 79/831 Annex V.A8); type: physicochemical; conditions: acidic range (pH 2.3), marked a), 0.1% aqueous phosphoric acid/acetonitrile gradient, reversed-phase C 18, 43° C.; for chromatographic logP: reversed-phase C18 HPLC column
Procedure: The logP values given in the table were determined in accordance with EEC Directive 79/831 Annex V.A8 by HPLC (High Performance Liquid Chromatography) on a reversed-phase column (C 18). Temperature: 43° C. (a) Mobile phases for the determination in the acidic range (pH 2.3): 0.1% aqueous phosphoric acid, acetonitrile; linear gradient from 10% acetonitrile to 90% acetonitrile—the corresponding measurement results in table 1 are marked a). (b) Mobile phases for the determination in the neutral range (pH 7.5): 0.01-molar aqueous phosphate buffer solution, acetonitrile; linear gradient from 10% acetonitrile to 90% acetonitrile—the corresponding measurement results in table 1 are marked b). Calibration was carried out using unbranched alkan-2-ones (having 3 to 16 carbon atoms) with known logP values (determination of the logP values by the retention times using linear interpolation between two successive alkanones).

[2] = system: caterpillars of the armyworm (Spodoptera frugiperda); test: Spodoptera frugiperda test (spray treatment); type: in vivo; conditions: for pest or weed control at 500 g/ha / pest or weed control at 100 g/ha: Spodoptera frugiperda, 168 h, after 7 d, spray treatment, read-out: Kill rate in % after 7 d; for pest or weed control at 500 g/ha: active compound concentration 500 g/ha; for activity (kill of caterpillars): corn leaf disks sprayed, populated with Spodoptera frugiperda caterpillars, result in words; for pest or weed control at 100 g/ha: active compound concentration 100 g/ha
Procedure: Spodoptera Frugiperda Test (Spray Treatment) [table] To produce a suitable preparation of active compound, 1 part by weight of active compound is mixed with, the stated amounts of solvents and emulsifier, and the concentrate is diluted with emulsifier-containing water to the desired concentration. Disks of corn leaves (Zea mays) are sprayed with a preparation of active compound of the desired concentration and, after they have dried, populated with caterpillars of the armyworm (Spodoptera frugiperda). After the desired period of time, the activity in % is determined. 100% means that all caterpillars have been killed; 0% means that none of the caterpillars have been killed.

[3] = system: greenhouse red spidermite (Tetranychus urticae); test: Tetranychus test (OP-resistant/spray treatment); type: in vivo; conditions: for pest or weed control at 100 g/ha / pest or weed control at 500 g/ha: Tetranychus urticae, 120 h, after 5 d, OP-resistant, spray treatment, read-out: Kill rate in % after 5 d; for pest or weed control at 100 g/ha: active compound concentration 100 g/ha; for activity (kill of spidermites): bean leaf disks infested by all stages of Tetranychus urticae (OP-resistant), sprayed, result in words; for pest or weed control at 500 g/ha: active compound concentration 500 g/ha
Procedure: Tetranychus Test (OP-Resistant/Spray Treatment)
To produce a suitable preparation of active compound, 1 part by weight of active compound is mixed with the stated amounts of solvents and emulsifier, and the concentrate is diluted with emulsifier-containing water to the desired concentration.
Disks of bean leaves (Phaseolus vulgaris) which are infested by all stages of the greenhouse red spidermite (Tetranychus urticae) are sprayed with a preparation of active compound of the desired concentration.
After the desired period of time, the activity in % is determined. 100% means that all spidermites have been killed; 0% means that none of the spidermites have been killed.

[4] = system: larvae of the mustard beetle (Phaedon cochleariae); test: Phaedon test (spray treatment); type: in vivo; conditions: for activity (kill of beetle larvae): Chinese cabbage disks sprayed, populated with Phaedon cochleariae larvae, result in words; for pest or weed control at 100 g/ha / pest or weed control at 500 g/ha: Phaedon cochleariae, 168 h, after 7 d, spray treatment, read-out: Kill rate in % after 7 d; for pest or weed control at 100 g/ha: active compound concentration 100 g/ha; for pest or weed control at 500 g/ha: active compound concentration 500 g/ha
Procedure: (§1) Phaedon Test (Spray Treatment) [table] To produce a suitable preparation of active compound, 1 part by weight of active compound is mixed with the stated amounts of solvents and emulsifier, and the concentrate is diluted with emulsifier-containing water to the desired concentration. Disks of Chinese cabbage (Brassica pekinensis) are sprayed with a preparation of active compound of the desired concentration and, once they have dried, populated with larvae of the mustard beetle (Phaedon cochleariae). After the desired period of time, the activity in % is determined. 100% means that all beetle larvae have been killed; 0% means that none of the beetle larvae have been killed.

[5] = system: green peach aphid (Myzus persicae); test: Myzus test (spray treatment); type: in vivo; conditions: for activity (kill of aphids): Chinese cabbage disks infested by all stages of Myzus persicae, sprayed, result in words
Procedure: as §1, with “Myzus” for “Phaedon”, “pekinensis) which are infested by all stages of the green peach aphid (Myzus persicae)” for “pekinensis)”, “concentration.” for “concentration and, once they have dried, populated with larvae of the mustard beetle (Phaedon cochleariae).”, “aphids” for “beetle larvae”

Row | chromatographic logP [1] | logP [1] | Compound | activity (kill of spidermites) [3] | activity (kill of beetle larvae) [4] | further results
1 | 4.58 | – | OC1(C(F)(F)F)CC(c2ccccc2)=NN1C(=S)Nc1ccc(Cl)cc1 (stereo not drawn) [Example 83] | – | – | pest or weed control at 500 g/ha [2]: 100%; activity (kill of caterpillars) [2]: good activity
2 | 3.97 | – | CC1=NN(C(=S)Nc2ccc(Cl)cc2Cl)C(O)(C(F)(F)F)C1 (stereo not drawn) [Example 118] | good activity | – | pest or weed control at 100 g/ha [3]: 90%
3 | 4.26 | – | CC(C)(C)C1=NN(C(=S)Nc2ccccc2)C(O)(C(F)(F)F)C1 (stereo not drawn) [Example 63] | – | good activity | pest or weed control at 100 g/ha [4]: 100%; pest or weed control at 100 g/ha [2]: 100%; activity (kill of caterpillars) [2]: good activity
4 | 4.94 | – | CC(C)(C)C1=NN(C(=S)Nc2ccc(OC(F)(F)F)cc2)C(O)(C(F)(F)F)C1 (stereo not drawn) [Example 64] | – | good activity | pest or weed control at 100 g/ha [4]: 100%; pest or weed control at 100 g/ha [2]: 100%; activity (kill of caterpillars) [2]: good activity
5 | 3.37 | – | CC1=NN(C(=S)Nc2ccc(OC(F)(F)F)cc2)C(O)(C(F)(F)F)C1 (stereo not drawn) [Example 106] | good activity | – | pest or weed control at 100 g/ha [3]: 100%
6 | 4.75 | – | CC(C)(C)C1=NN(C(=S)Nc2ccc(Cl)cc2)C(O)(C(F)(F)F)C1 (stereo not drawn) [Example 74] | good activity | good activity | pest or weed control at 100 g/ha [4]: 100%; pest or weed control at 100 g/ha [3]: 100%; pest or weed control at 100 g/ha [2]: 100%; activity (kill of caterpillars) [2]: good activity
7 | 4.9 | – | CC(C)(C)C1=NN(C(=S)NCc2ccc(Cl)cc2)C(O)(C(F)(F)F)C1 (stereo not drawn) [Example 75] | good activity | good activity | pest or weed control at 100 g/ha [4]: 100%; pest or weed control at 100 g/ha [3]: 100%; pest or weed control at 100 g/ha [2]: 100%; activity (kill of caterpillars) [2]: good activity
8 | 4.05 | – | Cc1ccc(NC(=O)N2N=C(C(C)(C)C)CC2(O)C(F)(F)F)cc1 (stereo not drawn) [Example 70] | – | – | activity (kill of aphids) [5]: good activity; pest or weed control at 100 g/ha ([5]; Myzus persicae, 120 h, active compound concentration 100 g/ha, after 5 d, spray treatment, read-out: Kill rate in % after 5 d): 100%
9 | 4.25 | – | CCC1=NN(C(=S)NCc2ccccc2Cl)C(O)(C(F)(F)F)C1 (stereo not drawn) [Example 56] | good activity | good activity | pest or weed control at 500 g/ha [4]: 100%; pest or weed control at 100 g/ha [3]: 90%
10 | 4.24 | – | CC1=NN(C(=S)NCCc2ccc(Cl)cc2)C(O)(C(F)(F)F)C1 (stereo not drawn) [Example 126] | good activity | – | pest or weed control at 100 g/ha [3]: 90%
11 | – | logP = 3.87^a) | CC1=NN(C(=S)NCc2ccccc2Cl)C(O)(C(F)(F)F)C1 (stereo not drawn) [Example 125] | – | – | –
12 | – | logP = 4.16^a) | CC(C)(C)C1=NN(C(=O)Nc2ccc(Cl)cc2)C(O)(C(F)(F)F)C1 (stereo not drawn) [Example 58] | – | – | –
13 | – | logP = 3.53^a) | CC1=NN(C(=S)NCc2ccccc2F)C(O)(C(F)(F)F)C1 (stereo not drawn) [Example 124] | – | – | –
14 | – | logP = 3.71^a) | CCC1=NN(C(=S)Nc2cccc(F)c2)C(O)(C(F)(F)F)C1 (stereo not drawn) [Example 94] | – | – | –
15 | – | logP = 3.97^a) | O=C(Nc1ccc(Cl)cc1)N1N=C(c2ccccc2)CC1(O)C(F)(F)F (stereo not drawn) [Example 82] | – | – | –
16 | – | logP = 3.10^a) | COc1ccc(NC(=S)N2N=C(C)CC2(O)C(F)(F)F)cc1 (stereo not drawn) [Example 102] | – | – | –
17 | – | logP = 5.18^a) | CC(C)(C)C1=NN(C(=O)Nc2ccc(Cl)cc2Cl)C(O)(C(F)(F)F)C1 (stereo not drawn) [Example 68] | – | – | –
18 | – | logP = 4.61^a) | CCC1=NN(C(=S)Nc2ccc(Cl)c(Cl)c2)C(O)(C(F)(F)F)C1 (stereo not drawn) [Example 96] | – | – | –
19 | – | logP = 4.75^a) | CCC1=NN(C(=S)Nc2cc(Cl)cc(Cl)c2)C(O)(C(F)(F)F)C1 (stereo not drawn) [Example 92] | – | – | –

The remaining lines, values behind:

Row | Compound | chromatographic logP [1] | logP [1] | activity (kill of spidermites) [3] | activity (kill of beetle larvae) [4] | further results
20 | CCC1=NN(C(=S)Nc2ccccc2F)C(O)(C(F)(F)F)C1 (stereo not drawn) [Example 40] | 3.51 | – | – | – | activity (kill of aphids) [5]: good activity; pest or weed control at 500 g/ha ([5]; Myzus persicae, 120 h, active compound concentration 500 g/ha, after 5 d, spray treatment, read-out: Kill rate in % after 5 d): 90%
21 | COc1ccccc1NC(=S)N1N=C(C(C)C)CC1(O)C(F)(F)F (stereo not drawn) [Example 30] | 4.23 | – | good activity | good activity | pest or weed control at 500 g/ha [4]: 100%; pest or weed control at 500 g/ha [3]: 90%
22 | CC(C)(C)C1=NN(C(=S)NC2CCCCC2)C(O)(C(F)(F)F)C1 (stereo not drawn) [Example 73] | – | – | – | good activity | pest or weed control at 100 g/ha [4]: 100%; pest or weed control at 100 g/ha [2]: 100%; activity (kill of caterpillars) [2]: good activity
23 | CC(C)C1=NN(C(=O)Nc2ccccc2Cl)C(O)(C(F)(F)F)C1 (racemic) [Example 37] | – | logP = 4.10^a) | – | – | –
24 | CC(C)C1=NN(C(=S)Nc2ccc(OC(F)(F)F)cc2)C(O)(C(F)(F)F)C1 (racemic) [Example 36] | – | logP = 4.61^a) | – | – | –
25 | CCC1=NN(C(=S)NCc2ccccc2F)C(O)(C(F)(F)F)C1 (stereo not drawn) [Example 55] | 3.88 | – | good activity | good activity | pest or weed control at 500 g/ha [4]: 100%; pest or weed control at 100 g/ha [3]: 90%; pest or weed control at 500 g/ha [2]: 100%; activity (kill of caterpillars) [2]: good activity
26 | CC(C)C1=NN(C(N)=S)C(O)(C(F)(F)F)C1 (racemic) [Example 45] | – | logP = 2.47^a) | – | – | –
27 | Cc1ccccc1NC(=S)N1N=C(C(C)C)CC1(O)C(F)(F)F (stereo not drawn) [Example 32] | 4.1 | – | – | good activity | pest or weed control at 500 g/ha [4]: 100%; pest or weed control at 500 g/ha [2]: 100%; activity (kill of caterpillars) [2]: good activity
28 | CCC1=NN(C(=S)Nc2ccc(Cl)cc2)C(O)(C(F)(F)F)C1 (stereo not drawn) [Example 53] | 4.07 | – | – | good activity | pest or weed control at 500 g/ha [4]: 100%
29 | O=C(Nc1ccc(OC(F)(F)F)cc1)N1N=C(C2(Cl)CC2)CC1(O)C(F)(F)F (stereo not drawn) [Example 52] | – | logP = 4.07^a) | – | – | –
30 | CCC1=NN(C(=O)Nc2ccc(C#N)cc2)C(O)(C(F)(F)F)C1 (stereo not drawn) [Example 51] | – | logP = 2.65^a) | – | – | –
31 | CC(C)C1=NN(C(=S)Nc2ccc(C(C)(C)C)cc2)C(O)(C(F)(F)F)C1 (racemic) [Example 21] | – | logP = 5.18^a) | – | – | –
32 | CC(C)C1=NN(C(=S)NC2CCCCC2)C(O)(C(F)(F)F)C1 (stereo not drawn) [Example 44] | 4.94 | – | good activity | good activity | pest or weed control at 500 g/ha [4]: 100%; pest or weed control at 500 g/ha [3]: 90%; pest or weed control at 500 g/ha [2]: 100%; activity (kill of caterpillars) [2]: good activity
33 | CC(C)CC1=NN(C(=S)Nc2ccc(OC(F)(F)F)cc2)C(O)(C(F)(F)F)C1 (stereo not drawn) [Example 22] | 4.42 | – | good activity | – | pest or weed control at 500 g/ha [3]: 90%
